Earlier results in US12326454B2 (Arium BioLabs LLC, priority 2019, dated 2025).

Target: cMET (Homo sapiens, UniProt P08581)
Conditions: stabilizes the A-loop, auto-inhibited conformation

Chain of cMET (P08581 25-1390): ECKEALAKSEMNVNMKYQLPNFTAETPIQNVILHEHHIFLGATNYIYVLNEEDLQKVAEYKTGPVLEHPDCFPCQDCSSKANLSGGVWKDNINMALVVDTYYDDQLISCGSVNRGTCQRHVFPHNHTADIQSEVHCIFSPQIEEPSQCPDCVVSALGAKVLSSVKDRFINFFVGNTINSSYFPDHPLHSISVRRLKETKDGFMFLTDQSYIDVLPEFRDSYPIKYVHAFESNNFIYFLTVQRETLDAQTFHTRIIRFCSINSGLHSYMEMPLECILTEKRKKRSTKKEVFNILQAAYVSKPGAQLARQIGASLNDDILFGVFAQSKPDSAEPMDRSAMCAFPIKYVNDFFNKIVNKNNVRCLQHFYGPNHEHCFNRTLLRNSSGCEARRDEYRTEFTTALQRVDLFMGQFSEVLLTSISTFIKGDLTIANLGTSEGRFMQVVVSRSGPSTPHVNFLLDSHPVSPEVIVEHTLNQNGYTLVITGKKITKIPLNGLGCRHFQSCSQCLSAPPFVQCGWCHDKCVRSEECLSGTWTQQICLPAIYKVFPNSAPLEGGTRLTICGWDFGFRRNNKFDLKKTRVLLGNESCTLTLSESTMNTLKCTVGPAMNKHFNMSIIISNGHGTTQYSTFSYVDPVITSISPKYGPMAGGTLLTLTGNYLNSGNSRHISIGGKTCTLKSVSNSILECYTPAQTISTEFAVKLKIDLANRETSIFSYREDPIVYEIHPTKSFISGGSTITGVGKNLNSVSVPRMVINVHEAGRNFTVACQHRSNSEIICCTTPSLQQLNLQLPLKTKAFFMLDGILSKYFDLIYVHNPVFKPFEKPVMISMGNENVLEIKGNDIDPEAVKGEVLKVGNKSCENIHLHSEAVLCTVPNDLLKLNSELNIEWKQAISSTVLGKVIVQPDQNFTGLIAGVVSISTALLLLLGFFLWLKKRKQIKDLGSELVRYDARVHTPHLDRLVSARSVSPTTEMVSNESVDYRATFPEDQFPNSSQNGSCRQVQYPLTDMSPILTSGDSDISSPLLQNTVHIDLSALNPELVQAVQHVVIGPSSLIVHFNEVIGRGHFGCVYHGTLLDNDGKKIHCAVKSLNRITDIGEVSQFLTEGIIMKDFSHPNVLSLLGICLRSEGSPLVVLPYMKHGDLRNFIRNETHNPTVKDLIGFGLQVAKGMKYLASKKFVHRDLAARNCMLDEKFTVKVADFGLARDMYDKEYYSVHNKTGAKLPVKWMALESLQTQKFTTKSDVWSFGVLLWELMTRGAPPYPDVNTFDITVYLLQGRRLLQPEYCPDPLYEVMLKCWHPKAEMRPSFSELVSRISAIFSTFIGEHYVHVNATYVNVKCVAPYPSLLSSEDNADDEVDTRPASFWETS

O=C1NC(=O)[C@@H](c2cn3c4c(cccc24)CCC3)[C@@H]1c1c[nH]c2ccccc12 [ARQ197]
effect on cMET: selectively inhibits cMET
